# Assay results reported in article PMC9652956, “The ovipositor cue indole inhibits animal host attraction in Aedes aegypti (Diptera: Culicidae) mosquitoes” (Parasites & Vectors, 2022).
# Key:
# [1] = target: T1, AaegOR8 (Aedes aegypti (R)-1-octen-3-ol receptor OR8) (Aedes aegypti, UniProt Q16MN0); assay: two-electrode voltage clamp, Xenopus oocytes; baseline current shift under […] perfusion versus water-injected oocytes; format: cell-based
# T1 construct: gene GPRor8; with AaegOrco
# T1 sequence (Q16MN0 1-422): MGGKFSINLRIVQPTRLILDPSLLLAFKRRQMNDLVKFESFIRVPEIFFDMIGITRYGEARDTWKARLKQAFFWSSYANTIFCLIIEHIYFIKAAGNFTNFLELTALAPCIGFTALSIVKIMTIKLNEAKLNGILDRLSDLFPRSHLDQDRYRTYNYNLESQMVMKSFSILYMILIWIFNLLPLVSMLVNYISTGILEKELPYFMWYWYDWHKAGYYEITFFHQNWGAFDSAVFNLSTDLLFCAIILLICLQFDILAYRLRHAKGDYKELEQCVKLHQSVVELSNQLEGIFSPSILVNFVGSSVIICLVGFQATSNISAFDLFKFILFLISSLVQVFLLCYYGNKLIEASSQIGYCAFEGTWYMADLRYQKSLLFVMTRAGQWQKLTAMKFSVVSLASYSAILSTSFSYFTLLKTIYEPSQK
# T1 sequence (Q178U6 1-478 partner): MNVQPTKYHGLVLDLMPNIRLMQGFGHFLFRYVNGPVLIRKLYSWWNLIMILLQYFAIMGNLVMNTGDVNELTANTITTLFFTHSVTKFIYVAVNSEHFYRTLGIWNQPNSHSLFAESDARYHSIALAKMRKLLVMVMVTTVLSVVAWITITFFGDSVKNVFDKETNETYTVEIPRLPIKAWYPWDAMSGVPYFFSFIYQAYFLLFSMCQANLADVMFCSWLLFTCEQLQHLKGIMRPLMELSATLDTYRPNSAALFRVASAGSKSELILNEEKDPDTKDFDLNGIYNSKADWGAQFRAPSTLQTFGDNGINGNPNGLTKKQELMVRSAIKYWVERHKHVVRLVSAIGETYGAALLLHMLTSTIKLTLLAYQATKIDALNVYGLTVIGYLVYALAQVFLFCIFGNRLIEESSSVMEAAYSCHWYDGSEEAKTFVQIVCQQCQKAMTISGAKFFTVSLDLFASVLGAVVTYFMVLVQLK
# [2] = target: T1, AaegOR8 (Aedes aegypti (R)-1-octen-3-ol receptor OR8); assay: two-electrode voltage clamp, Xenopus oocytes expressing AaegOR8-Orco; about […] inhibition at […]; not active on Orco alone; format: cell-based; details: read-out: % reduction at 10^-3 M
SMILES,"two-electrode voltage clamp, Xenopus oocytes; baseline current shift under 0.01 [1]",inhibition at 1000 µM [2]
CCCCN(CCC(=O)OCC)C(C)=O [IR3535],"Indole and insect repellents (DEET, IR3535) increased the baseline current state of AaegOR8-Orco-injected oocytes",–
CCN(CC)C(=O)c1cccc(C)c1 [DEET],"Indole and insect repellents (DEET, IR3535) increased the baseline current state of AaegOR8-Orco-injected oocytes",–
c1ccc2[nH]ccc2c1 [indole],–,~30%
